Laboratory results: patent US12679878B2, “CRF2 receptor agonists and their use in therapy” (SANOFI, priority 2020, dated 2026)
Like-named read-outs stand apart in the source and are kept apart here. Starred links: 1 amine or outer side, 2 acyl side, 3 side chain; linkers in the order of their positions; H or OH if unused. Residues, ends and D or L forms follow the SMILES beside them. Groups on a side chain read outwards from the residue. *: point of attachment. C18 diacid = O=C(O)CCCCCCCCCCCCCCCCC(=O)*; γGlu = O=C(O)[C@H](CCC(=O)[*:2])N[*:1]; Palmitoyl = CCCCCCCCCCCCCCCC(=O)*; AEEA = NCCOCCOCC(=O)O

Columns and labels:
[1] = target: T1, CRF1R receptor (Homo sapiens, UniProt P34998); experiment: cAMP activity at anti-target CRF1R, CRF1R-overexpression CHO cell line (Example 9); type: cell-based
T1 construct: host or cells: CHO-K1 clone 2
T1 sequence (P34998 24-415): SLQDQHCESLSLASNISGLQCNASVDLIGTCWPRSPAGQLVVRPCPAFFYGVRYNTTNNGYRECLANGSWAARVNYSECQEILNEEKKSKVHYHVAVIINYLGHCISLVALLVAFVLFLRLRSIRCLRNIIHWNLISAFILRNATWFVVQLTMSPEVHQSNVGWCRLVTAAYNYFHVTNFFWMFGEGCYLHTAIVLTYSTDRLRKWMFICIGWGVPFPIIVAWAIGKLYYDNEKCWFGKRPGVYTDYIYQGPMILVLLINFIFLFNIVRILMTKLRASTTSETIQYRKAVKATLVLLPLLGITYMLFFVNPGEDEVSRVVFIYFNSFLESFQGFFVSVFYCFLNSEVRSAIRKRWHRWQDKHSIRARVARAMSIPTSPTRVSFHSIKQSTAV
Method in brief: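 cAMP accumulation was read by HTRF after 30 min at room temperature of compound treatment. Cells were cryopreserved CHO cells overexpressing CRF1R, plated at 2000/well in IBMX (2 mM)-containing HBSS/HEPES buffer with 0 or 0.1% HSA. Activity was normalized to 1000 nM UCN2 as 100%.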

[2] = target: T2, human CRF2α receptor (Homo sapiens, UniProt Q13324); experiment: cAMP agonism at human CRF2 α receptor in TeloHEAC cells (Example 7); type: cell-based; conditions: cAMP HTRF, TeloHEAC cells stably expressing human CRF2 α
T2 construct: expressed in transfected cells; host or cells: TeloHEAC
T2 sequence (Q13324 1-411): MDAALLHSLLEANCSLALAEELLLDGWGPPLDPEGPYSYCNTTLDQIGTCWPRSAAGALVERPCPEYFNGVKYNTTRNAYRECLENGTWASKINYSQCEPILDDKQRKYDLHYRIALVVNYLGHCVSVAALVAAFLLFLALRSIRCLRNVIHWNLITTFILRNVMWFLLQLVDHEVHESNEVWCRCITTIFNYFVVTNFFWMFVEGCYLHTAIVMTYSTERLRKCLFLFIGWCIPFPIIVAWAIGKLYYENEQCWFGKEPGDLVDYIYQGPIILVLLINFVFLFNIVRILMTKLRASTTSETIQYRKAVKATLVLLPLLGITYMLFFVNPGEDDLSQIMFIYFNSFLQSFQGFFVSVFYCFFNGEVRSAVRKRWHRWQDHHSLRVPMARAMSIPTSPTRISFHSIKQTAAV
Method in brief: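 Cryopreserved cells are thawed, washed and resuspended in IBMX-containing (2 mM) HEPES-buffered HBSS with or without 0.1% HSA. Compound incubation runs 30 min at room temperature with 2000 cells per well, then cAMP is measured by time-resolved FRET. Potency is expressed as EC50, efficacy relative to urocortin 2 at 1000 nM.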

[3] = Chemical stability, purity loss by UPLC-UV after 28 days at 40° C. vs 5° C., pH 4.5 acetate buffer (Example 12); type: physicochemical; conditions: 28 days 40° C. vs 5° C.; pH 4.5, 20 mM acetate buffer; 300 μM
Procedure: The chemical stability of the compounds was assessed by storing the compounds under various conditions and then determining the loss of purity by UPLC-UV.
Prior to measuring the chemical stability of a batch of test compound, the purity of the compound was determined through UPLC/MS. For stability testing the target concentration was 300 μM pure compound. Therefore, solutions from solid samples were prepared in a pH 4.5, 20 mM acetate buffer system with a concentration of 300 μM compound based on the previously determined % purity:
At the starting point, UPLC-UV was performed by injection of 2 μl of the undiluted sample. Aliquots were then stored for 28 days at temperatures of 5 and 40° C. […] Then 2 μl samples of the undiluted supernatant were analysed with UPLC-UV. The chemical stability was calculated by the equation: [(purity after 28 days at 5° C.)−(purity after 28 days at 40° C.)]/(purity after 28 days at 5° C.)]×100%. The purity was calculated as: [(peak area compound)/(total peak area)]×100%.

[4] = Physical stability, Thioflavin T fibrillation assay (Example 14); type: physicochemical; conditions: 3 mg/ml, 37° C. shaking
Method in brief: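 Compounds at 3 mg/ml final in buffer were stressed at 37° C by repeated cycles of 10 s shaking at 960 rpm and 50 s rest. ThT fluorescence was read every 20 minutes in eight replicates, with fluorescence increase and lag time indicating fibrillation tendency.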

[5] = Solubility in buffer systems by UPLC-UV (Example 13); type: physicochemical
Method in brief: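 The supernatant was diluted 1:10 and quantified by UPLC-UV peak area against a reference standard curve, correcting for sequence-based extinction coefficients.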

[6] = tested on: rat CRF2R α receptor; experiment: cAMP agonism at rat CRF2R α receptor in A7R5 rat aortic smooth muscle cells (Example 8); type: cell-based; conditions: cAMP HTRF, A7R5 rat aortic smooth muscle cell line, 0% HSA
Method in brief: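 Thawed cryopreserved A7R5 cells in HBSS/20 mM HEPES (0 or 0.1% HSA) with 2 mM IBMX, 2000 cells/well, were exposed to compound for 30 min at room temperature. cAMP was read by HTRF (665/620 nm ratio) after 1 h with lysis reagents. Activity was normalised to 1000 nM urocortin 2 as 100%, and EC50 was taken as the concentration giving 50% of maximal activation.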

[7] = 0% HSA, read-out: EC50 [nM], 0% HSA
[8] = Buffer A: 100 mM acetate buffer, pH 4.5
[9] = Buffer B: 100 mM acetate buffer, pH 4.5, 2.7 mg/ml m-cresol

| Emax ([1]; CRF1R-overexpression CHO cell line, read-out: Emax (%)) [%] | EC50 ([2]; 0.1% HSA, read-out: EC50 [nM], 0.1% HSA) [nM] | Increase in FI (fluorescence intensity) [4, 8] | Lag time [4, 8] [h] | solubility at 1 h ([5]; pH 4.5, Solubility in Buffer B [mg/ml]) [µg/mL] | solubility at 1 h ([5]; pH 7.4, Solubility in Buffer C [mg/ml]) [µg/mL] | Compound | EC50 [2, 7] [nM] | Relative purity loss [%] [3] [%] | Increase in FI (fluorescence intensity) [4, 9] | Lag time [4, 9] [h] | EC50 [6] [nM] | Emax ([1]; CHO) [%] | solubility at 1 h ([5]; Buffer B: 100 mM acetate buffer, pH 4.5, 2.7 mg/ml m-cresol, target 10 mg/ml, read-out: Solubility in Buffer B) [µg/mL] | solubility at 1 h ([5]; Buffer C: 100 mM phosphate buffer, pH 7.4, target 10 mg/ml, read-out: Solubility in Buffer C) [µg/mL] |
| --- | --- | --- | --- | --- | --- | --- | --- | --- | --- | --- | --- | --- | --- | --- |
| 47.2 | 0.18 | No | >45 | > 8500 | > 8100 | CCCCCCCCCCCCCCCC(=O)N[C@@H](CCC(=O)NCCCC[C@H](NC(=O)[C@H](CC(C)C)NC(=O)CNC(=O)[C@@H](NC(=O)[C@@H]1CCCN1C(=O)[C@@H](NC(=O)[C@H](CC(=O)O)NC(=O)[C@H](CC(C)C)NC(=O)[C@H](CO)NC(=O)[C@H](CC(C)C)NC(=O)[C@@H](NC(=O)[C@@H](N)[C@@H](C)CC)C(C)C)C(C)C)[C@@H](C)CC)C(=O)N[C@@H](CCC(N)=O)C(=O)N[C@@H](CCCCN)C(=O)N[C@@H](CC(C)C)C(=O)N[C@@H](CC(C)C)C(=O)N[C@@H](CCCCN)C(=O)N[C@@H](CCC(N)=O)C(=O)N[C@@H](CCC(N)=O)C(=O)N[C@@H](CCCNC(=N)N)C(=O)N[C@@H](CCC(N)=O)C(=O)N[C@@H](CCCNC(=N)N)C(=O)N[C@@H](CCCCN)C(=O)N[C@@H](CCC(=O)O)C(=O)N[C@@H](CCCNC(=N)N)C(=O)N[C@@H](CCC(N)=O)C(=O)N[C@@H](CCC(N)=O)C(=O)N[C@@H](C)C(=O)N[C@@H](CCC(=O)O)C(=O)N[C@@H](CCCCN)C(=O)N[C@@H](CC(N)=O)C(=O)N[C@@H](C)C(=O)N[C@@H](CCCNC(=N)N)C(=O)N[C@H](C(=O)N[C@@H](CC(C)C)C(=O)N[C@@H](C)C(=O)N[C@@H](CCCNC(=N)N)C(=O)N[C@H](C(N)=O)C(C)C)[C@@H](C)CC)C(=O)O [compound 6] (H-IVLSLDVPIGLK([γGlu-Palmitoyl])QKLLKQQRQRKERQQAEKNARILARV-NH2; N-terminus assumed) | 0.16 | 1.9 | No | >45 |  |  |  |  |
|  |  |  |  |  |  | CC[C@H](C)[C@H](N)C(=O)N[C@H](C(=O)N[C@@H](CC(C)C)C(=O)N[C@@H](CO)C(=O)N[C@@H](CC(C)C)C(=O)N[C@@H](CC(=O)O)C(=O)N[C@H](C(=O)N1CCC[C@H]1C(=O)N[C@H](C(=O)N[C@@H](CCCCN)C(=O)N[C@@H](CC(C)C)C(=O)N[C@@H](CCCCNC(=O)COCCOCCNC(=O)COCCOCCNC(=O)CC[C@H](NC(=O)CCCCCCCCCCCCCCCCC(=O)O)C(=O)O)C(=O)N[C@@H](CCC(N)=O)C(=O)N[C@H](C(=O)N[C@@H](CC(C)C)C(=O)N[C@@H](CC(C)C)C(=O)N[C@@H](CCCCN)C(=O)N[C@@H](CCC(N)=O)C(=O)N[C@@H](CCC(=O)O)C(=O)N[C@@H](CCCNC(=N)N)C(=O)N[C@@H](CCC(N)=O)C(=O)N[C@@H](CCCCN)C(=O)N[C@@H](CCCCN)C(=O)N[C@@H](CCC(N)=O)C(=O)N[C@@H](CCCNC(=N)N)C(=O)N[C@@H](CCC(N)=O)C(=O)N[C@@H](CCCCN)C(=O)N[C@@H](C)C(=O)N[C@@H](CCC(=O)O)C(=O)N[C@H](C(=O)N[C@@H](CC(N)=O)C(=O)N[C@@H](CCCCN)C(=O)N[C@@H](CCC(N)=O)C(=O)N[C@H](C(=O)N[C@@H](CC(C)C)C(=O)N[C@@H](C)C(=O)N[C@@H](CCC(N)=O)C(=O)N[C@H](C(N)=O)C(C)C)[C@@H](C)CC)[C@@H](C)O)[C@@H](C)CC)[C@@H](C)CC)C(C)C)C(C)C [compound 77] (H-IVLSLDVPIKLK([AEEA-AEEA-γGlu-C18 diacid])QILLKQERQKKQRQKAETNKQILAQV-NH2) | 0.33 | 3.60 | Yes | 23.0 to 29.7 | 3.26 | 1.56 | > 8000 | > 9000 |
